Read-outs that look alike come from different tables or passages of the source.
Tests used:
[1] = system: MV4-11 cells (acute myeloid leukemia); assay: Cell proliferation inhibition, MV4-11 (cck-8); assay type: cell-based; settings: Homo sapiens
In short: (§1)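 Cells seeded at 2000-3000/well; adherent lines dosed after attachment, then 96 h incubation with compound. Viability read by MTT for solid-tumour lines (HCT116, A2780s) and CCK-8 for MV4-11; IC50 from four-parameter logistic fit of inhibition ratio versus concentration.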

[2] = system: HBL-1 cells (B-cell lymphoma); assay: Proliferation inhibition, HBL-1 (cck-8); assay type: cell-based; settings: Homo sapiens, HBL1; 96 h incubation
From the text: (§2) Calculating the value of IC50 as per the formula: Y=background data+(top data−background data)/(1+10^((Log IC50−X)*rate of curve)). Where, Y refers to the inhibition ratio (%) and X refers to the compound concentration.

[3] = system: RPMI-8226 cells (multiple myeloma); assay: Proliferation inhibition, RPMI-8226 (cck-8); assay type: cell-based; settings: Homo sapiens, 96 h incubation
From the text: as §2

[4] = system: SUDHL-4 cells (B-cell lymphoma); assay: Proliferation inhibition, SUDHL-4 (cck-8); assay type: cell-based; settings: Homo sapiens, SU-DHL-4; 96 h incubation
From the text: as §2

HDAC7 = molecular target: T1, HDAC7 (Homo sapiens, UniProt Q8WUI4); assay: HDAC7 enzyme inhibition (Lys-Ac-AMC); assay type: biochemical; settings: Table 4, graded
T1 construct: purchased BPS Bioscience 50007
T1 sequence (Q8WUI4 518-952 limits assumed): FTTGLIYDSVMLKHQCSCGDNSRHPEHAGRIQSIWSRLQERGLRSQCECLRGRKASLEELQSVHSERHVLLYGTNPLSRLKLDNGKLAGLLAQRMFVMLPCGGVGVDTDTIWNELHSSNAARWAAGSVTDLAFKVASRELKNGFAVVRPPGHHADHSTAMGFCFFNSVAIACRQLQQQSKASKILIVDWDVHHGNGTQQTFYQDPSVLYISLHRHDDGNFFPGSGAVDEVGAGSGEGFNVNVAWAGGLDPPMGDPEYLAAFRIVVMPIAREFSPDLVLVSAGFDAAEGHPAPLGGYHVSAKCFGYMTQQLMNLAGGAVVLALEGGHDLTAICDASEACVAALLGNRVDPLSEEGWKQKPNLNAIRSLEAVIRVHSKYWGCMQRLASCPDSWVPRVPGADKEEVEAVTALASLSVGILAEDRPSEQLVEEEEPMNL
Procedure: (§3) Determining the inhibition capability of HDAC through the substrate method of fluorophore coupled acetylized peptide fragment (Lys-Ac-AMC). HDAC2-11 proteins of subtypes are purchased from BPS Bioscience Company with the Art. […] The reaction buffer system is a modified Tris buffer (pH7.0). The small molecule compounds are prepared and dissolved with 100% DMSO. […] Adding the compound into the reaction wells of the 384 well plate at the designed concentration, then adding 15 μL HDAC enzyme solution into the reaction wells (adding 15 μL blank buffer into the control well 0) for incubation under ambient temperature for 15 min; then adding 10 μL substrate solution to start reaction.
(§4) Analyzing the result data with the software GraphPad Prism and calculating the value of IC50 as per the formula: Y=background data+(top data−background data)/(1+10^((Log IC50−X)*rate of curve)). Where, Y refers to the inhibition ratio (%) and X refers to the compound concentration.

PI3Kα = molecular target: T2, PI3Kα (Homo sapiens, UniProt P42336); assay: PI3Kα activity inhibition (Kinase-Glo); assay type: biochemical
T2 construct: purchased Invitrogen PV4788
T2 sequence (P42336 whole entry, species assumed): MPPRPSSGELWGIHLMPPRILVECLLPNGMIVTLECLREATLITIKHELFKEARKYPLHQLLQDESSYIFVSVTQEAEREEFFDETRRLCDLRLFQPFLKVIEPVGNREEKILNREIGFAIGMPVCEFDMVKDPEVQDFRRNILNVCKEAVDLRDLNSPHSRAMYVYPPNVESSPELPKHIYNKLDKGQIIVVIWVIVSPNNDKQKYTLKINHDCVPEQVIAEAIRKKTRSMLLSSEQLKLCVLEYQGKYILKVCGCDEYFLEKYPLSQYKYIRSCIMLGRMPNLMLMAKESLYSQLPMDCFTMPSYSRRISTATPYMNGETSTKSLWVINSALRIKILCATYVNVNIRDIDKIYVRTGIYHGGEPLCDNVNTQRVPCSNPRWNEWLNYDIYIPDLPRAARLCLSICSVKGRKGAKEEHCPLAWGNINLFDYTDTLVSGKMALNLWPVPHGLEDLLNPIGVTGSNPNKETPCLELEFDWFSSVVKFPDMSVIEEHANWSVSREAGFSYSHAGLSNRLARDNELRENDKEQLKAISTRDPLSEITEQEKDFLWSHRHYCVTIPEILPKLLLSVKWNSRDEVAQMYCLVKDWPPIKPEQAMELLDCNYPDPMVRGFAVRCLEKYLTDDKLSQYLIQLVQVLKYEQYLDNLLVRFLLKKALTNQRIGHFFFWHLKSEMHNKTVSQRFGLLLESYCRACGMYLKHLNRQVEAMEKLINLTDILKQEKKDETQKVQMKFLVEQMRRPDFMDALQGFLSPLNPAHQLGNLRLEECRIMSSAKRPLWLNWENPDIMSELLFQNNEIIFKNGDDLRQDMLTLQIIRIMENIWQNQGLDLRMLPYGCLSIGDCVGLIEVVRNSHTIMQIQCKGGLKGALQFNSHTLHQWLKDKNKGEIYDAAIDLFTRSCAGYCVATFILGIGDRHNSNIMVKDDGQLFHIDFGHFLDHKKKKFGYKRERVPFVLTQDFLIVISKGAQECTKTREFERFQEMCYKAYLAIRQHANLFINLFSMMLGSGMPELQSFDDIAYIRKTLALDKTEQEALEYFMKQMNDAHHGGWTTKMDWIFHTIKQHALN
T2 sequence (P27986 whole entry partner, species assumed): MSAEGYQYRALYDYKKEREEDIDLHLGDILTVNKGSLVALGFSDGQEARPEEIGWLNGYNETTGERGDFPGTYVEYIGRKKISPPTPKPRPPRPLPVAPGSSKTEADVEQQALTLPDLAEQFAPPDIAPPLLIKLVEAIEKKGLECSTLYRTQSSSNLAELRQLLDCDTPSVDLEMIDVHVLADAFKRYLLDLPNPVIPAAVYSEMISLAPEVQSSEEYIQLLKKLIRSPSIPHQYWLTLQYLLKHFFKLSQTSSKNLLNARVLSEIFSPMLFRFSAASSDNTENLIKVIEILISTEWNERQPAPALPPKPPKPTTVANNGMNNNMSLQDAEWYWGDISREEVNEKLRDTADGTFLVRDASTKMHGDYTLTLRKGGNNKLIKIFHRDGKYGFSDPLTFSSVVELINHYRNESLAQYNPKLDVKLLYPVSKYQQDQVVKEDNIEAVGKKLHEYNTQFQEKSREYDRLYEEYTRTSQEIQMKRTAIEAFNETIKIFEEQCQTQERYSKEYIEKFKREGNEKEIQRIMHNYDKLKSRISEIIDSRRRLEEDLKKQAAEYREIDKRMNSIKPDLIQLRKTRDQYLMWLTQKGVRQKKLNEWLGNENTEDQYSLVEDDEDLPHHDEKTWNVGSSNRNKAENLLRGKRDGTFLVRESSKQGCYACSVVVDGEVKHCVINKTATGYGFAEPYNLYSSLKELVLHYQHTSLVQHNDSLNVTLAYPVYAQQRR
In short: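 Kinase-Glo luminescence read-out of remaining ATP after PI3K reaction with PIP2 and ATP substrates in 50 mM HEPES pH 7.5, 3 mM MgCl2, 1 mM EGTA, 100 mM NaCl, 0.03% CHAPS, 2 mM DTT. Incubated at ambient temperature, 1 h for PI3Kα, 2 h for PI3Kδ. IC50 from four-parameter fit of % inhibition versus concentration.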

[5] = system: hct116 cells (colon cancer); assay: Cell proliferation inhibition, hct116 (MTT); assay type: cell-based; settings: Homo sapiens, HCT-116
In short: as §1

[6] = system: U266 cells (multiple myeloma); assay: Proliferation inhibition, U266 (cck-8); assay type: cell-based; settings: Homo sapiens, U-266; 96 h incubation
From the text: as §2

HDAC11 = molecular target: T3, HDAC11 (Homo sapiens, UniProt Q96DB2); assay: HDAC11 enzyme inhibition (Lys-Ac-AMC); assay type: biochemical; settings: Table 4, graded
T3 construct: purchased BPS Bioscience 50011
T3 sequence (Q96DB2 1-347): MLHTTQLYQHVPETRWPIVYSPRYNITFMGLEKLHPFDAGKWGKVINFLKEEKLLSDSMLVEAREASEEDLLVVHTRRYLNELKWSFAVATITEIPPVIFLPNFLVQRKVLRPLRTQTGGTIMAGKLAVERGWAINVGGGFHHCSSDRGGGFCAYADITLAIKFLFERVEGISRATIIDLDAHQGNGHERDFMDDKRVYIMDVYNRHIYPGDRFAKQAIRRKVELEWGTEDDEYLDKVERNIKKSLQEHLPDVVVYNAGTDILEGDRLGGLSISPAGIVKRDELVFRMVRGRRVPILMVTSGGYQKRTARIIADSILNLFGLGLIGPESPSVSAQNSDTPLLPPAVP
Procedure: as §3, §4

HDAC5 = molecular target: T4, HDAC5 (Homo sapiens, UniProt Q9UQL6); assay: HDAC5 enzyme inhibition (Lys-Ac-AMC); assay type: biochemical; settings: Table 4, graded
T4 construct: purchased BPS Bioscience 50005
T4 sequence (Q9UQL6 656-1122 limits assumed): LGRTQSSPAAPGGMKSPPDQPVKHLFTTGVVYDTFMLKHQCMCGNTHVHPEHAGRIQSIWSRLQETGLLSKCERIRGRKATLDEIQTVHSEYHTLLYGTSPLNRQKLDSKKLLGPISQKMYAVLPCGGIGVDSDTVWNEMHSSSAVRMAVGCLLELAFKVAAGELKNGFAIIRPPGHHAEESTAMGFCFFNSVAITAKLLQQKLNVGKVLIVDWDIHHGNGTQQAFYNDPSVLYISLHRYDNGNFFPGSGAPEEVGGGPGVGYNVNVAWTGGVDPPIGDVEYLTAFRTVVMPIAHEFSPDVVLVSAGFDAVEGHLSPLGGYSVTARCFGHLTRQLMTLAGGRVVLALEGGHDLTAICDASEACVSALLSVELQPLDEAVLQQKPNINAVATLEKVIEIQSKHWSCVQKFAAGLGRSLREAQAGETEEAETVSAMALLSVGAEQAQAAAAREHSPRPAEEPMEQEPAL
Procedure: as §3, §4

[7] = system: A2780s cells (ovarian cancer); assay: Cell proliferation inhibition, A2780s (MTT); assay type: cell-based; settings: Homo sapiens
In short: as §1

HDAC4 = molecular target: T5, HDAC4 (Homo sapiens, UniProt P56524); assay: HDAC4 enzyme inhibition (Lys-Ac-AMC); assay type: biochemical; settings: Table 4, graded
T5 construct: purchased BPS Bioscience 50004
T5 sequence (P56524 627-1084 limits assumed): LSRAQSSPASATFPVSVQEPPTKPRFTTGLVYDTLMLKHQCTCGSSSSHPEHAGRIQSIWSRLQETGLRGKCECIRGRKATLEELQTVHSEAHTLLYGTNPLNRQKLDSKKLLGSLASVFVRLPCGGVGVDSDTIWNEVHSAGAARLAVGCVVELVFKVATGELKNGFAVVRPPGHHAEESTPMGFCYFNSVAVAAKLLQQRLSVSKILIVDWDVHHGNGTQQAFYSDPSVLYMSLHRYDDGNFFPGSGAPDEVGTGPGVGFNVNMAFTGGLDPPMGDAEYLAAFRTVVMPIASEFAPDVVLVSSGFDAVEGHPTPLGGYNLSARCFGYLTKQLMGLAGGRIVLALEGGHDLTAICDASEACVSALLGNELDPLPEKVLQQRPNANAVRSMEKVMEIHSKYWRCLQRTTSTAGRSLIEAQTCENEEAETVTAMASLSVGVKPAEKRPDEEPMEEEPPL
Procedure: as §3, §4

[8] = 96 h incubation, read-out: Proliferation IC50, Acute myeloid leukemia MV4-11
[9] = Table 1, graded, read-out: PI3Kα IC50
[10] = Table 4, graded, read-out: PI3Kα IC50
[11] = 96 h incubation, read-out: Proliferation IC50, Colon cancer hct116
[12] = 96 h incubation, read-out: Proliferation IC50, Ovarian cancer A2780s

Row | SMILES | IC50 [1, 8] [nM] | IC50 ([1]; read-out: IC50 to proliferation of MV4-11 cells) [nM] | IC50 [2] [nM] | IC50 [3] [nM] | IC50 [4] [nM] | IC50 (HDAC7) [nM] | IC50 (PI3Kα; [9]) [nM] | IC50 (PI3Kα; [10]) [nM] | IC50 [5, 11] [nM] | IC50 ([5]; read-out: IC50 to proliferation of hct116 cells) [nM] | IC50 [6] [nM] | IC50 (HDAC11) [nM] | IC50 (HDAC5) [nM] | IC50 [7, 12] [nM] | IC50 ([7]; read-out: IC50 to proliferation of A2780s cells) [nM] | IC50 (HDAC4) [nM] | IC50 (PI3Kα; read-out: inhibition value IC50 to the activity of PI3Kα) [nM]
1 | COc1ccc(-c2nc(N3CCOCC3)c3nc(CN(C)c4ncc(C(=O)NO)cn4)n(C)c3n2)cc1 [CLJ-29, 2-(((2-(4-methoxyphenyl)-9-methyl-6-morpholine-9H-purine-8-yl))methyl(methyl)amino)-N-hydroxyl pyrimidine-5-formamide] | 0.1 to 10 | 0.1 to 10 | 1 to 10 | 0.1 to 1 | 0.1 to 1 | 1000 to 10000 | > 10000 | > 10000 | 0.1 to 10 | 0.1 to 10 | 0.1 to 1 | 1000 to 10000 | 1000 to 10000 | 0.1 to 10 | 0.1 to 10 | 1000 to 10000 | –
2 | COc1ccc(-c2nc(N3CCOCC3)c3nc(CN(C)c4ncc(C(=O)NO)cn4)n(C)c3n2)cn1 [CLJ-1, 2-(((2-(6-methoxypyridine-3-yl)-9-methyl-6-morpholine-9H-purine-8-yl))methyl(methyl)amino)-N-hydroxyl pyrimidine-5-formamide] | 0.1 to 10 | – | 1 to 10 | 1 to 10 | 1 to 10 | 1000 to 10000 | 1000 to 10000 | 1000 to 10000 | 10 to 100 | – | 0.1 to 1 | 1000 to 10000 | 1000 to 10000 | 0.1 to 10 | – | 1000 to 10000 | –
3 | CN(Cc1nc2c(N3CCOCC3)nc(-c3cnc(N)nc3)nc2n1C)c1ncc(C(=O)NO)cn1 [CLJ-11, 2-(((2-(2-aminopyrimidine-5-yl)-9-methyl-6-morpholine-9H-purine-8-yl))methyl(methyl)amino)-N-hydroxyl pyrimidine-5-formamide] | 0.1 to 10 | – | 10 to 100 | 10 to 100 | 10 to 100 | 100 to 1000 | < 100 | 1 to 100 | 10 to 100 | – | 10 to 100 | 1000 to 10000 | 100 to 1000 | 10 to 100 | – | 100 to 1000 | < 100
4 | Cc1[nH]c2ccccc2c1CCNCc1ccc(/C=C/C(=O)NO)cc1 [LBH589, panobinostat, reference compound] | 0.1 to 10 | – | 1 to 10 | 1 to 10 | 1 to 10 | – | – | > 10000 | 0.1 to 10 | – | 1 to 10 | – | – | 0.1 to 10 | – | – | –
5 | CN(Cc1nc2c(N3CCOCC3)nc(-c3ccc(N)cc3)nc2n1C)c1ncc(C(=O)NO)cn1 [CLJ-44] | 0.1 to 10 | – | 1 to 10 | 0.1 to 1 | 1 to 10 | 1000 to 10000 | 1000 to 10000 | 1000 to 10000 | 10 to 100 | – | 1 to 10 | 1000 to 10000 | 100 to 1000 | 0.1 to 10 | – | 1000 to 10000 | –

Source: patent publication US10227347B2, “Purinyl-N-hydroxyl pyrimidine formamide derivative, preparation methods and uses thereof” (Guizhou Bailing Group Pharmaceutical CO., LTD., priority 2015, dated 2019)
